Literature values in US20050201989A1, “Compositions and methods for ex vivo preservation of blood vessels for vascular grafts using inhibitors of tumor necrosis factor-alpha” (St. Camillus Medical, Inc., priority 2004, published 2005).

Test system: endothelial cells
Conditions: general knowledge statement, no test described

CCCC(=O)Nc1ncnc2c1ncn2[C@@H]1O[C@@H]2COP(=O)(O)O[C@H]2[C@H]1OC(=O)CCC [db cAMP, dibutyryl adenosine 3′,5′-cyclic monophosphate]
db cAMP concentration that becomes toxic to endothelial cells: higher than 4 mM
